These results are taken from patent US10435405B2, “Pyrazolopyridine compounds and uses thereof” (Incyte Corporation, priority 2016, dated 2019).

Molecules are shown by their SMILES.

For the experiment, the target named is HPK1 (Homo sapiens (Human), UniProt Q92918). The experiment is described as follows: HPK1 Kinase Binding Assay. In short, it runs like this: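 This is a LanthaScreen tracer-binding format: a tracer 222/Eu-anti-GST antibody mix (18 nM and 4 nM solution) is added to active HPK1 (4 nM solution) with 3-fold, 11-point compound dilutions. Incubation is 1 h at 25 °C in HEPES pH 7.5 buffer before reading, and Ki is determined.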
Chain of HPK1 (Q92918 1-346): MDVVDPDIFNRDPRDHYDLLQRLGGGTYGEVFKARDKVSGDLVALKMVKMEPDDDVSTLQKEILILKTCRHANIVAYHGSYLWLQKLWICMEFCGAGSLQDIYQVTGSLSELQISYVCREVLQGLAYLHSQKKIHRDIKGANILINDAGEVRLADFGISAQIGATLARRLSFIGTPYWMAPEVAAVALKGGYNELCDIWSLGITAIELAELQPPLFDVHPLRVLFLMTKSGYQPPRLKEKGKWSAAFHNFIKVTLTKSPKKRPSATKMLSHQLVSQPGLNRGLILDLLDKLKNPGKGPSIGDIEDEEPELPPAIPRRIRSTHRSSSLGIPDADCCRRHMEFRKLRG
Consider `CNCc1cc(F)c(-c2cc3c(-c4ccc(N5CCN(C)CC5)nc4)n[nH]c3cn2)c(C(F)(F)F)c1` [Example 119, 1-(3-Fluoro-4-(3-(6-(4-methylpiperazin-1-yl)pyridin-3-yl)-1H-pyrazolo[3,4-c]pyridin-5-yl)-5-(trifluoromethyl)phenyl)-N-methylmethanamine], for which the Ki is at most 100 nM.

For the compound `Cc1cc(NC(=O)CN2C3CCC2CC3)cc(F)c1-c1cc2c(-c3cnn(C)c3)n[nH]c2cn1` [Example 82, 2-(7-Azabicyclo[2.2.1]heptan-7-yl)-N-(3-fluoro-5-methyl-4-(3-(1-methyl-1H-pyrazol-4-yl)-1H-pyrazolo[3,4-c]pyridin-5-yl)phenyl)acetamide], the Ki is at most 100 nM.

For `Cn1cc(-c2n[nH]c3cnc(-c4c(F)cc(CNc5ccccn5)cc4F)cc23)cn1` [Example 124, N-(3,5-Difluoro-4-(3-(1-methyl-1H-pyrazol-4-yl)-1H-pyrazolo[3,4-c]pyridin-5-yl)benzyl)pyridin-2-amine], the Ki is at most 100 nM.

Turning to `Cn1cc(-c2n[nH]c3cnc(-c4c(F)cc(NC(=O)CN5CCC5)c(F)c4F)cc23)cn1` [Example 77, 2-(Azetidin-1-yl)-N-(2,3,5-trifluoro-4-(3-(1-methyl-1H-pyrazol-4-yl)-1H-pyrazolo[3,4-c]pyridin-5-yl)phenyl)acetamide], the inhibitory constant (Ki) is at most 100 nM.

The compound `COc1cccc(Cl)c1-c1cc2c(-c3ccc(N4CCN(C)CC4)cc3)n[nH]c2cn1` [Example 52, 5-(2-Chloro-6-methoxyphenyl)-3-(4-(4-methylpiperazin-1-yl)phenyl)-1H-pyrazolo[3,4-c]pyridine] came in with a Ki of at most 100 nM.

Compound `Cn1cc(-c2n[nH]c3cnc(-c4c(F)cc(NC(=O)CN5CCC5)cc4OC(F)F)cc23)cn1` [Example 72, 2-(Azetidin-1-yl)-N-(3-(difluoromethoxy)-5-fluoro-4-(3-(1-methyl-1H-pyrazol-4-yl)-1H-pyrazolo[3,4-c]pyridin-5-yl)phenyl)acetamide] came in with a Ki of at most 100 nM.

The compound `CNC(C)c1cc(C)c(-c2cc3c(-c4cnn(C5CC5)c4)n[nH]c3cn2)c(F)c1` (single isomer, unassigned) [Example 229, 1-(4-(3-(1-Cyclopropyl-1H-pyrazol-4-yl)-1H-pyrazolo[3,4-c]pyridin-5-yl)-3-fluoro-5-methylphenyl)-N-methylethanamine] had a Ki of at most 100 nM.

Consider `COc1c(-c2cc3c(-c4cnn(C)c4)n[nH]c3cn2)c(F)cc2c1C(N)CC2` (stereo not drawn) [Example 207, 5-Fluoro-7-methoxy-6-(3-(1-methyl-1H-pyrazol-4-yl)-1H-pyrazolo[3,4-c]pyridin-5-yl)-2,3-dihydro-1H-inden-1-amine], for which the Ki was at most 100 nM.

As for `COc1cccc(F)c1-c1cc2c(NC(=O)c3ccc(N4CCN(C5CC5)C(=O)C4)cc3)n[nH]c2cn1` [Example 31, 4-(4-Cyclopropyl-3-oxopiperazin-1-yl)-N-(5-(2-fluoro-6-methoxyphenyl)-1H-pyrazolo[3,4-c]pyridin-3-yl)benzamide], the inhibition constant (Ki) is at most 100 nM.

Consider `CNC1CCCc2c1ccc(F)c2-c1cc2c(-c3ccc(N4CCN(C)CC4)cc3)n[nH]c2cn1` (stereo not drawn) [Example 209, 6-Fluoro-N-methyl-5-(3-(4-(4-methylpiperazin-1-yl)phenyl)-1H-pyrazolo[3,4-c]pyridin-5-yl)-1,2,3,4-tetrahydronaphthalen-1-amine], for which the Ki was at most 100 nM.

As for `CNCc1cc(C)c(-c2cc3c(-c4ccc(N5CCC(O)C5)nc4)n[nH]c3cn2)c(F)c1` (stereo not drawn) [Example 113, 1-(5-(5-(2-Fluoro-6-methyl-4-((methylamino)methyl)phenyl)-1H-pyrazolo[3,4-c]pyridin-3-yl)pyridin-2-yl)pyrrolidin-3-ol], the Ki is at most 100 nM.

Consider `CNCc1cc(F)c(-c2cc3c(-c4cnn(C)c4)n[nH]c3cn2)c(C(F)(F)F)c1` [Example 131, 1-(3-Fluoro-4-(3-(1-methyl-1H-pyrazol-4-yl)-1H-pyrazolo[3,4-c]pyridin-5-yl)-5-(trifluoromethyl)phenyl)-N-methylmethanamine], for which the Ki is at most 100 nM.

Turning to `CNCc1cc(F)c(-c2cc3c(NC(=O)c4cnn(C)c4)n[nH]c3cn2)c(F)c1` [Example 144, N-(5-(2,6-Difluoro-4-((methylamino)methyl)phenyl)-1H-pyrazolo[3,4-c]pyridin-3-yl)-1-methyl-1H-pyrazole-4-carboxamide], the Ki was at most 100 nM.

For `CNCc1cc(F)c(-c2cc3c(-c4ccc(N5CCN(C)CC5)cc4)n[nH]c3cn2)c(C(F)(F)F)c1` [Example 132, 1-(3-Fluoro-4-(3-(4-(4-methylpiperazin-1-yl)phenyl)-1H-pyrazolo[3,4-c]pyridin-5-yl)-5-(trifluoromethyl)phenyl)-N-methylmethanamine], the Ki is at most 100 nM.

Regarding `COC1CN(Cc2cc(F)c(-c3cc4c(NC(=O)c5ccc(N6CCN(C)CC6)cc5)n[nH]c4cn3)c(F)c2)C1` [Example 143, N-(5-(2,6-Difluoro-4-((3-methoxyazetidin-1-yl)methyl)phenyl)-1H-pyrazolo[3,4-c]pyridin-3-yl)-4-(4-methylpiperazin-1-yl)benzamide], the Ki is at most 100 nM.

Compound `CCn1cc(-c2n[nH]c3cnc(-c4c(C)cc(CNC)cc4F)cc23)cn1` [Example 133, 1-(4-(3-(1-Ethyl-1H-pyrazol-4-yl)-1H-pyrazolo[3,4-c]pyridin-5-yl)-3-fluoro-5-methylphenyl)-N-methylmethanamine] yielded a Ki of at most 100 nM.

Take `CN1CCN(c2ccc(-c3n[nH]c4cnc(-c5c(F)cc6c(c5F)CCCC6N)cc34)cn2)CC1` (stereo not drawn) [Example 203, 5,7-Difluoro-6-(3-(6-(4-methylpiperazin-1-yl)pyridin-3-yl)-1H-pyrazolo[3,4-c]pyridin-5-yl)-1,2,3,4-tetrahydronaphthalen-1-amine]: the Ki was at most 100 nM.

Turning to `CNC1CCc2cc(F)c(-c3cc4c(-c5ccc(N6CCN(C)CC6)cc5)n[nH]c4cn3)c(F)c2C1` (stereo not drawn) [Example 199, 6,8-Difluoro-N-methyl-7-(3-(4-(4-methylpiperazin-1-yl)phenyl)-1H-pyrazolo[3,4-c]pyridin-5-yl)-1,2,3,4-tetrahydronaphthalen-2-amine], the Ki is at most 100 nM.

Turning to `COc1cccc(F)c1-c1cc2c(NC(=O)c3cccc(N4CCN(S(C)(=O)=O)CC4)c3)n[nH]c2cn1` [Example 22, N-(5-(2-Fluoro-6-methoxyphenyl)-1H-pyrazolo[3,4-c]pyridin-3-yl)-3-(4-(methylsulfonyl)piperazin-1-yl)benzamide], the Ki is at most 100 nM.

With `CNCc1cc(F)c(-c2cc3c(-c4cnc(N5CCC(O)CC5)nc4)n[nH]c3cn2)c(F)c1` [Example 218, 1-(5-(5-(2,6-Difluoro-4-((methylamino)methyl)phenyl)-1H-pyrazolo[3,4-c]pyridin-3-yl)pyrimidin-2-yl)piperidin-4-ol], the Ki is at most 100 nM.

`CCN1CCN(c2cccc(C(=O)Nc3n[nH]c4cnc(-c5c(F)cccc5OC)cc34)c2)CC1` [Example 20, 3-(4-Ethylpiperazin-1-yl)-N-(5-(2-fluoro-6-methoxyphenyl)-1H-pyrazolo[3,4-c]pyridin-3-yl)benzamide] had a Ki of at most 100 nM.

As to `COc1cccc(F)c1-c1cc2c(NC(=O)c3ccn(C)n3)n[nH]c2cn1` [Example 15, N-(5-(2-Fluoro-6-methoxyphenyl)-1H-pyrazolo[3,4-c]pyridin-3-yl)-1-methyl-1H-pyrazole-3-carboxamide], the inhibitory constant (Ki) is at most 100 nM.

Take `Cc1cc(NC(=O)CN2C[C@H]3CC[C@@H]2C3)ccc1-c1cc2c(-c3cnn(C)c3)n[nH]c2cn1` [Example 79, 2-((1R,4S)-2-Azabicyclo[2.2.1]heptan-2-yl)-N-(3-methyl-4-(3-(1-methyl-1H-pyrazol-4-yl)-1H-pyrazolo[3,4-c]pyridin-5-yl)phenyl)acetamide]: the Ki is at most 100 nM.

For `COc1cccc(F)c1-c1cc2c(NC(=O)c3ccc(N4CCN(S(C)(=O)=O)CC4)cc3)n[nH]c2cn1` [Example 32, N-(5-(2-Fluoro-6-methoxyphenyl)-1H-pyrazolo[3,4-c]pyridin-3-yl)-4-(4-(methylsulfonyl)piperazin-1-yl)benzamide], the Ki was at most 100 nM.

In turn, `CNCc1cc(F)c(-c2cc3c(-c4ccc(N5CCN(C(C)=O)CC5)cn4)n[nH]c3cn2)c(OC(F)F)c1` [Example 193, 1-(4-(6-(5-(2-(Difluoromethoxy)-6-fluoro-4-((methylamino)methyl)phenyl)-1H-pyrazolo[3,4-c]pyridin-3-yl)pyridin-3-yl)piperazin-1-yl)ethanone] displayed a Ki of at most 100 nM.

On to `Cn1cc(-c2n[nH]c3cnc(-c4c(F)cc(C5CCCN5)cc4C(F)(F)F)cc23)cn1` (single isomer, unassigned) [Example 226, 5-(2-Fluoro-4-(pyrrolidin-2-yl)-6-(trifluoromethyl)phenyl)-3-(1-methyl-1H-pyrazol-4-yl)-1H-pyrazolo[3,4-c]pyridine], for which the Ki is at most 100 nM.

With `CN1CCN(c2ccc(C(=O)Nc3n[nH]c4cnc(-c5c(F)cc(CN6CCC6)cc5F)cc34)cc2)CC1` [Example 142, N-(5-(4-(Azetidin-1-ylmethyl)-2,6-difluorophenyl)-1H-pyrazolo[3,4-c]pyridin-3-yl)-4-(4-methylpiperazin-1-yl)benzamide], the Ki is at most 100 nM.

For the compound `COc1cccc(C(=O)Nc2n[nH]c3cnc(-c4c(F)cccc4OC)cc23)c1` [Example 9, N-(5-(2-Fluoro-6-methoxyphenyl)-1H-pyrazolo[3,4-c]pyridin-3-yl)-3-methoxybenzamide], the Ki was at most 100 nM.

Consider `CNC(=O)c1ccc(-c2n[nH]c3cnc(-c4c(F)ccc5c4CCCC5NC)cc23)cn1` (stereo not drawn) [Example 208, 5-(5-(2-Fluoro-5-(methylamino)-5,6,7,8-tetrahydronaphthalen-1-yl)-1H-pyrazolo[3,4-c]pyridin-3-yl)-N-methylpicolinamide], for which the Ki is at most 100 nM.

`CNCc1cc(C)c(-c2cc3c(-c4cnn(C5CCOCC5)c4)n[nH]c3cn2)c(F)c1` [Example 136, 1-(3-Fluoro-5-methyl-4-(3-(1-(tetrahydro-2H-pyran-4-yl)-1H-pyrazol-4-yl)-1H-pyrazolo[3,4-c]pyridin-5-yl)phenyl)-N-methylmethanamine] registered a Ki of at most 100 nM.
